Measured values taken from ChEMBL document CHEMBL5291721, “A preclinical secondary pharmacology resource illuminates target-adverse drug reaction associations of marketed drugs” (Nat Commun, 2023).
Where a SMILES comes first, the peptide text is derived from it.

Key:
Adenosine receptor A3 = biological target: T1, Adenosine receptor A3 (Homo sapiens, UniProt P0DMS8)
T1 sequence (P0DMS8 whole entry): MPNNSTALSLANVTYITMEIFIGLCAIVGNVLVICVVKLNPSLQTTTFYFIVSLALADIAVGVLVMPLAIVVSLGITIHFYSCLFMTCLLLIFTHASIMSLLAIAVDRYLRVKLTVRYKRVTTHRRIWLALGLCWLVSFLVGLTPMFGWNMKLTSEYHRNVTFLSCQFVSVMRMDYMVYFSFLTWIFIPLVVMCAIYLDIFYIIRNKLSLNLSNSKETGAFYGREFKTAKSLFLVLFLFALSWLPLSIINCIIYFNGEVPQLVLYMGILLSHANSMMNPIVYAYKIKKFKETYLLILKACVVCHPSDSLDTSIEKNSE

Cannabinoid receptor 1 = Cannabinoid receptor 1 (Homo sapiens, UniProt P21554); assay type: functional, cell-based
Adenosine receptor A1 = biological target: T2, Adenosine receptor A1 (Homo sapiens, UniProt P30542)
T2 sequence (P30542 whole entry): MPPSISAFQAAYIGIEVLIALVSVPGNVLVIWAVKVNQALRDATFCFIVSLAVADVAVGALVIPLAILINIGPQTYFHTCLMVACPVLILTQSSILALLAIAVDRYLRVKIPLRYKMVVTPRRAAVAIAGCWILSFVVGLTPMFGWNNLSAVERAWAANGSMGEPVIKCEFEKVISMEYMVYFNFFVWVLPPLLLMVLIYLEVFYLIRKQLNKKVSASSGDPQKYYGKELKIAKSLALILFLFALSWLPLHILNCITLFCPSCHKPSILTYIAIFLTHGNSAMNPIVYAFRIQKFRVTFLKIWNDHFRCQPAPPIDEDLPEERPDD

[1] = biological target: T3, Alpha-1A adrenergic receptor (Homo sapiens, UniProt P35348); assay type: functional, cell-based
T3 sequence (P35348 whole entry): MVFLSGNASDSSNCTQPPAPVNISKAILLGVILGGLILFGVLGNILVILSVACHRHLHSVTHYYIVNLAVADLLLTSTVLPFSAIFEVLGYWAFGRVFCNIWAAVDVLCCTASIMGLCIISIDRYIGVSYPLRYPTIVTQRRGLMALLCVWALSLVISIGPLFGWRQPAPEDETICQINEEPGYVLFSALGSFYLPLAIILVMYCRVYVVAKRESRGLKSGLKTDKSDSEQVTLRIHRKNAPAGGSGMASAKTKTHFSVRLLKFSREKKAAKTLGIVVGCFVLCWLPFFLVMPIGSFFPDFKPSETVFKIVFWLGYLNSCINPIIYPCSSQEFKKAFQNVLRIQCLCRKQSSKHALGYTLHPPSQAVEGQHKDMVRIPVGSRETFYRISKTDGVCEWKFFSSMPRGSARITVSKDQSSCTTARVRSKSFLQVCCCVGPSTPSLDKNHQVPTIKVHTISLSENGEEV

Vasopressin V2 receptor = Vasopressin V2 receptor (Homo sapiens, UniProt P30518)
[2] = biological target: cGMP-inhibited 3',5'-cyclic phosphodiesterase 3A (Homo sapiens, UniProt Q14432); assay type: functional
[3] = biological target: T4, Prostaglandin G/H synthase 1 (Rattus norvegicus, UniProt Q63921); assay type: functional
T4 sequence (Q63921 whole entry): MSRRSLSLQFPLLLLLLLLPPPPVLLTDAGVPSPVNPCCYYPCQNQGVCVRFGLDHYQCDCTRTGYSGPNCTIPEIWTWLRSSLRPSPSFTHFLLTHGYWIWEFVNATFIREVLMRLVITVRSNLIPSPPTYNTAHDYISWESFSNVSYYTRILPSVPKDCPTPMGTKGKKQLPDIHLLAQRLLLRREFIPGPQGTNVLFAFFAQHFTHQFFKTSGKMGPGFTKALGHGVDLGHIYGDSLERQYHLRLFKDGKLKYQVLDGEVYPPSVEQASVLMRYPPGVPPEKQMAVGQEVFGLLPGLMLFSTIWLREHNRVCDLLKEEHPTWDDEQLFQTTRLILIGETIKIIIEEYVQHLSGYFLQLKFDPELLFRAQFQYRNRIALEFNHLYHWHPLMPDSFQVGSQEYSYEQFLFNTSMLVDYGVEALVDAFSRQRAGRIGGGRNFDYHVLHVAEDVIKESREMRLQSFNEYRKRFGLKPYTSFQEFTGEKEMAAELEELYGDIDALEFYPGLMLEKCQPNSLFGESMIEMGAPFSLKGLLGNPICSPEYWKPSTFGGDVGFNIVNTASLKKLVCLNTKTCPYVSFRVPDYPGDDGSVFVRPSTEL

[4] = biological target: T5, Gastrin/cholecystokinin type B receptor (Homo sapiens, UniProt P32239)
T5 sequence (P32239 whole entry): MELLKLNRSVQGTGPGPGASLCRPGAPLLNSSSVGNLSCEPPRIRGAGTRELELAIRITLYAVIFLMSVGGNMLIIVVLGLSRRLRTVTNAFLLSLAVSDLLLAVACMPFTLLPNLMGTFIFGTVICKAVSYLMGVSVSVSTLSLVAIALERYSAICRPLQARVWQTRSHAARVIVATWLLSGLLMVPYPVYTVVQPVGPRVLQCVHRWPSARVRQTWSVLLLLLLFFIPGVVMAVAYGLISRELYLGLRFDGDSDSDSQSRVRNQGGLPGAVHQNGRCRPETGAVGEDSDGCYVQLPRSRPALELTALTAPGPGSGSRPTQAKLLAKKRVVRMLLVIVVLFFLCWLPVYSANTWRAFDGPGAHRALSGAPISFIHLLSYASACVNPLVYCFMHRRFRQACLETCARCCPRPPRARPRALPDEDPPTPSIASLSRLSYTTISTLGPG

[5] = biological target: T6, Neuropeptide Y receptor type 1 (Homo sapiens, UniProt P25929)
T6 sequence (P25929 whole entry): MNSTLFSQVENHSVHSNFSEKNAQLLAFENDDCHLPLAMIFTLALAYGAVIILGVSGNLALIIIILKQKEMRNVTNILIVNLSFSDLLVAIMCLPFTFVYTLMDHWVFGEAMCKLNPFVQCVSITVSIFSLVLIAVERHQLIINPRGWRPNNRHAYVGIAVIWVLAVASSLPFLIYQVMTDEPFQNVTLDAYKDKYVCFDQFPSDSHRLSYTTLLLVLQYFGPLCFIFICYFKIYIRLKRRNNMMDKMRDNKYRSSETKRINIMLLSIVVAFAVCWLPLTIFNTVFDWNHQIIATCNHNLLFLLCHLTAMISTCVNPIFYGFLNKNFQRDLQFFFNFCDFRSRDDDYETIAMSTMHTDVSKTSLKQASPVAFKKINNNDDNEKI

[6] = biological target: Beta-2 adrenergic receptor (Homo sapiens, UniProt P07550)
Note: assay procedure not described here.

Sequence of Cannabinoid receptor 1 (P21554 whole entry): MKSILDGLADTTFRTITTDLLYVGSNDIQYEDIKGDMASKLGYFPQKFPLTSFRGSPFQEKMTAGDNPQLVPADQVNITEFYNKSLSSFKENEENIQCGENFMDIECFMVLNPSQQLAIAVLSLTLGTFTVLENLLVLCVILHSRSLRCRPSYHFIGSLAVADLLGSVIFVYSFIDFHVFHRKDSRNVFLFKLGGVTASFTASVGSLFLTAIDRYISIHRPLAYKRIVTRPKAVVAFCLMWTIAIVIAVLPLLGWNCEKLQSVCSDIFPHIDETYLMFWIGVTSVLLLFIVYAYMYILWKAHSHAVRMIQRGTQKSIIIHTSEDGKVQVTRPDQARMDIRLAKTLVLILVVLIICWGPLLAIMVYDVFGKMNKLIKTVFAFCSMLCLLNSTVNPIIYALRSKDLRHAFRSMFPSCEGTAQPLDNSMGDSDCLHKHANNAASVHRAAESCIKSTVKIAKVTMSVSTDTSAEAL
Sequence of cGMP-inhibited 3',5'-cyclic phosphodiesterase 3A (Q14432 whole entry): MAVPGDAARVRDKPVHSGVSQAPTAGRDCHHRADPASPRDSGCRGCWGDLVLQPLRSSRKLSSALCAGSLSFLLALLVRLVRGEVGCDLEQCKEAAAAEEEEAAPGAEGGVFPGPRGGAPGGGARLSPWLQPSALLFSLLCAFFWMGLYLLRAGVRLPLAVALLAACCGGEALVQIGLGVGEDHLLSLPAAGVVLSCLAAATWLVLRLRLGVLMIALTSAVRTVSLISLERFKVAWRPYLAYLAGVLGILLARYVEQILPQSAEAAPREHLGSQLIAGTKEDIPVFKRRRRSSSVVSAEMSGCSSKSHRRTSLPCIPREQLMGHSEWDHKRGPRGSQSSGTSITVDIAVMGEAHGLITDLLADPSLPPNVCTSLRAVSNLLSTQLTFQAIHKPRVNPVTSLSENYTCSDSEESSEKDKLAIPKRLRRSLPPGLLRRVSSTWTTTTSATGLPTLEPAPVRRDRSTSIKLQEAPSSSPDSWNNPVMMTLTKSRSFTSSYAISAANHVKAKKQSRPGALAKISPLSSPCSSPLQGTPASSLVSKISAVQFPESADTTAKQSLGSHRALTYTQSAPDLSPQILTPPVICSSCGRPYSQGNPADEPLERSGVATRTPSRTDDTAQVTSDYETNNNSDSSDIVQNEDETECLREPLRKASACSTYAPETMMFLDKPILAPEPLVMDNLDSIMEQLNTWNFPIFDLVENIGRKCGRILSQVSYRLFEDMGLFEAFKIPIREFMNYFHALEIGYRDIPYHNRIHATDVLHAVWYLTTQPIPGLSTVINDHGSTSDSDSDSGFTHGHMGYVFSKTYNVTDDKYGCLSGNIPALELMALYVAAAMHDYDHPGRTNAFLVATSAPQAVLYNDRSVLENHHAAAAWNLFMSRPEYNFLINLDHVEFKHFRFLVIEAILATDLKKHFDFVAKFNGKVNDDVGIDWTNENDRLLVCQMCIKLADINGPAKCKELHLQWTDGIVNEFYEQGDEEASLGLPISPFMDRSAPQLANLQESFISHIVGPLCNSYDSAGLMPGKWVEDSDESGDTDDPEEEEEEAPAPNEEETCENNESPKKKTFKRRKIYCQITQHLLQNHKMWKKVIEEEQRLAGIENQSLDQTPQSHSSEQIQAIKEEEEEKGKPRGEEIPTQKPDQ

Compound	AC50 (Adenosine receptor A3)	AC50 (Cannabinoid receptor 1)	AC50 (Adenosine receptor A1)	AC50 [1]	AC50 (Vasopressin V2 receptor)	AC50 [2]	AC50 [3]	AC50 [4]	AC50 [5]	AC50 [6]
CN1CCCN=C1/C=C/c1cccc(O)c1 [OXANTEL]	22 µM	> 30 µM	> 30 µM	> 30 µM	> 30 µM	> 30 µM	> 30 µM	> 10 µM	> 30 µM	
COC(=O)c1ccc2c(c1)NC(=O)/C2=C(\Nc1ccc(N(C)C(=O)CN2CCN(C)CC2)cc1)c1ccccc1 [NINTEDANIB]	> 30 µM	> 30 µM	> 30 µM	> 30 µM	> 30 µM	> 30 µM	> 30 µM	> 30 µM	> 30 µM	
O=C(O)c1nn(Cc2ccc(Cl)cc2Cl)c2ccccc12 [LONIDAMINE]	> 30 µM	> 30 µM	> 30 µM	> 30 µM	> 30 µM	> 30 µM	> 30 µM	> 30 µM	> 30 µM	
C[C@H](N)C(=O)N[C@@H](CCC(N)=O)C(=O)O [ALANYL GLUTAMINE] (H-Ala-Gln-OH)	> 30 µM	> 30 µM	> 30 µM	> 30 µM	> 30 µM	> 30 µM	> 30 µM	> 30 µM	> 30 µM	> 30 µM
CCc1ccc(C(=O)C(C)CN2CCCCC2)cc1 (stereo unspecified) [EPERISONE]	> 30 µM		> 30 µM	> 30 µM	> 30 µM	> 30 µM	> 30 µM	> 30 µM	> 30 µM	> 30 µM
CCCCCCCC(=O)CC[C@@H]1[C@@H](C/C=C\CCCC(=O)O)[C@@H](O)C[C@H]1O [UNOPROSTONE]	> 30 µM	> 30 µM	> 30 µM	> 30 µM	> 30 µM	> 30 µM	> 30 µM	> 30 µM	> 30 µM	
CCN1C(=O)NC(c2ccccc2)C1=O (stereo unspecified) [ETHOTOIN]	12 µM	> 30 µM	> 30 µM	> 30 µM	> 30 µM	> 30 µM	22 µM	> 30 µM	> 30 µM	
SITOSTEROLS	> 30 µM	> 30 µM	> 30 µM	> 30 µM	> 30 µM	> 10 µM		> 10 µM	> 30 µM	> 30 µM
O=C(O)c1ccc2nc(-c3cc(Cl)cc(Cl)c3)oc2c1	> 30 µM		> 30 µM	> 30 µM	> 30 µM	24 µM	> 30 µM	> 10 µM	> 30 µM	> 30 µM
CC1=C(C(=O)O)N2C(=O)[C@@H](NC(=O)[C@H](N)C3=CCC=CC3)[C@H]2SC1 [CEPHRADINE]	27 µM	> 30 µM	> 30 µM	> 30 µM	> 30 µM	> 30 µM	> 30 µM	> 30 µM	> 30 µM	
CCCCCCOC(=O)NC(=N)c1ccc(NCc2nc3cc(C(=O)N(CCC(=O)OCC)c4ccccn4)ccc3n2C)cc1 [DABIGATRAN ETEXILATE]	11 µM		> 30 µM	> 30 µM	> 30 µM	> 30 µM	> 30 µM	> 30 µM	> 30 µM	
CC(=O)OCC1=C(C(=O)O)N2C(=O)[C@@H](NC(=O)Cc3cccs3)[C@H]2SC1 [CEPHALOTHIN]	> 30 µM	> 30 µM	> 30 µM	> 30 µM	> 30 µM	> 30 µM	> 30 µM	> 30 µM	> 30 µM	
CS(=O)(=O)NC(=O)CCC/C=C\C[C@H]1C(=O)C[C@@H](O)[C@@H]1/C=C/[C@@H](O)COc1ccccc1 [SULPROSTONE]	> 30 µM	> 30 µM	> 30 µM	> 30 µM	> 30 µM	> 30 µM	> 30 µM	> 30 µM	> 30 µM	
CCC(=O)O[C@H](CC(=O)O)C[N+](C)(C)C [LEVOCARNITINE PROPIONATE]	> 30 µM	> 30 µM	> 30 µM	> 30 µM	> 30 µM	> 30 µM	> 30 µM	> 30 µM	> 30 µM	
CCCCC[C@H](O)CC[C@@H]1[C@H]2Cc3cccc(OCC(=O)O)c3C[C@H]2C[C@H]1O [TREPROSTINIL]	> 30 µM	> 30 µM	> 30 µM	> 30 µM	> 30 µM	> 30 µM	> 30 µM	> 30 µM	> 30 µM	
COc1ccc(-n2nc(C(N)=O)c3c2C(=O)N(c2ccc(N4CCCCC4=O)cc2)CC3)cc1 [APIXABAN]	> 30 µM	> 30 µM	> 30 µM	> 30 µM	> 30 µM	> 30 µM	> 30 µM	> 30 µM	> 30 µM	
CCC(NC(C)C)C(O)c1ccc(O)c(O)c1 (stereo unspecified) [ISOETHARINE]	> 30 µM		> 30 µM		> 30 µM	> 30 µM	0.66 µM	> 30 µM	> 30 µM	5.43 µM
COc1nc(C)nc(Cl)c1N=C1NCCN1 [MOXONIDINE]	> 30 µM	> 30 µM	> 30 µM	0.09 µM	> 30 µM	> 30 µM	> 30 µM	> 30 µM	> 30 µM	
